Measurements reported in PMC4534804, “Pharmacokinetics of a multicomponent herbal preparation in healthy Chinese and African volunteers” (Scientific Reports, 2015).
Values belong to the molecule of their own block, whether it stands above or below them.

Assays:
[1] = Identification of prototype compounds and metabolites in human plasma after oral K-601 (UPLC-QTOF/MS, EIC peak height); assay type: in vivo
Protocol: (§1) Chromatographic separation was carried out at 25 °C on a Zorbax RRHD Eclipse Plus C18 column (2.1 × 50 mm, 1.8 μm). The mobile phase consisted of 0.1% formic acid solution (A) and ACN (B) using a gradient elution of 0–5% B at 0–6 min, 5–8% B at 6–15 min, 8–15% B at 15–20 min, 15–20% B at 20–30 min, 20–30% at 30–35 min, 30–35% at 35–45 min, 35–40% at 45–60 min. The flow rate was kept at 0.2 mL/min, and the sample volume injected was set at 5 μL. […] The parameters of operation were as follows: drying gas N2 flow rate, 10.0 L/min; temperature, 330 °C; nebulizer, 35 psig; capillary, 3000 V; skimmer, 60 V; OCT RFV, 250 V. Each sample was analyzed in both the positive and negative modes due to the selective sensitivities to different components of the formulation-providing better information for molecular formulae and structural identification. Mass spectra were recorded across the range m/z 100–1000 with accurate mass measurements.
A total of six healthy male volunteers, ages ranging from 22–47 years took part in this study. Three of whom are Africans and three Chinese. […] None was also on any medication.
Blood samples were withdrawn from subjects at the following time intervals, 0 hour (before taking medication and breakfast), 1, 2, 4, and 6 hours after taking the medication. These blood samples were taken by a qualified phlebotomist in the hospital. Each volunteer took 40 mL of same batch of the medication as a single dose. […] Details of subjects in the pharmacokinetic studies are provided (Table 5).
(§2) All blood samples taken at each time were immediately centrifuged at 13000 rpm for 10 min, and the plasma separated and stored at −80 °C until analysis. Plasma samples were thawed at 37 °C before solid-phase extraction (SPE) treatment for UPLC-QTOF/MS analysis. The sample treatment procedure is schematically presented in Supplementary Figure S3.

[2] = Pharmacokinetics of major prototype compounds in healthy Chinese and African volunteers after single oral K-601 (EIC peak area vs time); assay type: in vivo, human; conditions: single oral 40 mL K-601; for Tmax: male, human, plasma, po, 40 mL
Protocol: A total of six healthy male volunteers, ages ranging from 22–47 years took part in this study. Three of whom are Africans and three Chinese. All volunteers avoided the intake of alcohol/alcoholic beverages, coffee/beverages containing coffee for at least 12 hours prior to the study. None was also on any medication. All volunteers also fasted for 12 hours prior to the study and throughout the study period.
Blood samples were withdrawn from subjects at the following time intervals, 0 hour (before taking medication and breakfast), 1, 2, 4, and 6 hours after taking the medication. These blood samples were taken by a qualified phlebotomist in the hospital. Each volunteer took 40 mL of same batch of the medication as a single dose. This study was approved by the Ethics Committee of the First Affiliated Hospital of Nanjing Medical University (2013-SRFA-078) and conducted under the guidelines of the Helsinki Declaration and the International Conference on Harmonization-Good Clinical Practices (ICH-GCP). Details of subjects in the pharmacokinetic studies are provided (Table 5).
as §2
Pharmacokinetic analyses were done using the extracted ion chromatograms (EIC) of the most abundant compounds. The peak areas of derived from the EIC were plotted against time (h).

human intestinal flora = experiment: Biotransformation and metabolism of K-601 by human fecal flora (anaerobic incubation); assay type: in vitro ADME
Protocol: as §1

[3] = human plasma after administration of K-601, metabolites
[4] = human plasma after single oral 40 mL K-601, prototype compounds

Molecule: 4-O-caffeoylquinic acid [P8]
Abund. (peak height in the EIC) of prototype compound in plasma ([1]; in vivo, po): 0.04 ×10^4

Molecule: O=C1c2cccc(O)c2C(=O)c2c(O)cc(O)cc21 [M10]
Abund. (peak height in the EIC) of metabolite in plasma [1, 3]: 0.02 ×10^4
Peak abundance (class) of metabolite in plasma [1, 3]: Low (<0.10 × 10^4 as trace constituent, thus low-level)

AUC comparison African vs Chinese volunteers (in words) [2]: better in the Chinese volunteers
Molecule: COc1ccc2c(c1O)-c1c(O)c(OC)cc3c1[C@H](C2)[N+](C)(C)CC3 [P1, Magnoflorine]
Abund. (peak height in the EIC) of prototype compound in plasma ([1]; male, human, in vivo, po): 6.52 ×10^4

Molecule: COc1cc2c(cc1OC)[C@@H]1Cc3ccc(OC)c(OC)c3CN1CC2 [P2, Tetrahydropalmatine]
Abund. (peak height in the EIC) of prototype compound in plasma [1, 4]: 0.03 ×10^4

Molecule: COc1cc2c(cc1O)CC[n+]1cc3c(OC)c(OC)ccc3cc1-2 [P3, Jatrorrhizine]
Abund. (peak height in the EIC) of prototype compound in plasma ([1]; male, human, in vivo, po): 3.53 ×10^4
Tmax ([2]; African volunteers): 4 h
Tmax ([2]; Chinese volunteers): 1 h
AUC comparison African vs Chinese volunteers (in words) [2]: higher

Tmax ([2]; African volunteers): 4 h
Tmax ([2]; Chinese volunteers): 1 h
AUC comparison African vs Chinese volunteers (in words) [2]: higher
Molecule: COc1cc2c(cc1OC)-c1cc3ccc(OC)c(OC)c3c[n+]1CC2 [P4, Palmatine]
Abund. (peak height in the EIC) of prototype compound in plasma [1, 4]: 12.63 ×10^4
Peak abundance (class) of prototype compound in plasma [1, 4]: High (> 1.00 × 10^4, defined as major constituent, thus high-level)

Tmax ([2]; African volunteers): 4 h
Tmax ([2]; Chinese volunteers): 1 h
AUC comparison African vs Chinese volunteers (in words) [2]: higher
Molecule: COc1ccc2cc3[n+](cc2c1OC)CCc1cc2c(cc1-3)OCO2 [P5, Berberine]
Abund. (peak height in the EIC) of prototype compound in plasma [1, 4]: 50.35 ×10^4
Peak abundance (class) of prototype compound in plasma [1, 4]: High (> 1.00 × 10^4, defined as major constituent, thus high-level)

Molecule: C=C[C@H]1[C@H](O[C@@H]2O[C@H](CO)[C@@H](O)[C@H](O)[C@H]2O)OC=C(C(=O)O)[C@H]1CC(=O)O [P6, Secologanoside]
Abund. (peak height in the EIC) of prototype compound in plasma ([1]; in vivo, po): 0.02 ×10^4

Molecule: O=C(/C=C/c1ccc(O)c(O)c1)O[C@@H]1C[C@](O)(C(=O)O)C[C@@H](O)[C@H]1O [P7, Chlorogenic acid]
Abund. (peak height in the EIC) of prototype compound in plasma [1, 4]: 0.03 ×10^4

Molecule: O=c1c(O[C@@H]2O[C@H](CO)[C@H](O)[C@H](O)[C@H]2O)c(-c2ccc(O)c(O)c2)oc2cc(O)cc(O)c12 [P10, Hyperoside]
Abund. (peak height in the EIC) of prototype compound in plasma [1, 4]: 0.05 ×10^4

Molecule: Cc1cc(O)c2c(c1)C(=O)c1cc(O)cc(O)c1C2=O [P12, Emodin]
Abund. (peak height in the EIC) of prototype compound in plasma [1, 4]: 0.04 ×10^4

Molecule: COc1c(O[C@@H]2O[C@H](C(=O)O)[C@@H](O)[C@H](O)[C@H]2O)cc(O)c2c(=O)cc(-c3ccccc3)oc12 [P13, Wogonoside]
Abund. (peak height in the EIC) of prototype compound in plasma [1, 4]: 0.42 ×10^4

Molecule: O=C(O)c1cc(O)c2c(c1)C(=O)c1cccc(O)c1C2=O [P14, Rhein]
Abund. (peak height in the EIC) of prototype compound in plasma [1, 4]: 0.62 ×10^4

Molecule: Cc1cc(O)c2c(c1)C(=O)c1cc(C(=O)O)cc(O)c1C2=O [P15, 6-Methyl-rhein]
Abund. (peak height in the EIC) of prototype compound in plasma ([1]; in vivo, po): 0.06 ×10^4

Abund. (peak height in the EIC) of metabolite from human intestinal transformation (human intestinal flora): 0.05 ×10^4
Molecule: O=C(O)c1cc(O)c(O)c(O)c1O [T1]

Molecule: Caffeoyl-CH2-O-quinic acid [P9]
Abund. (peak height in the EIC) of prototype compound in plasma [1, 4]: 0.03 ×10^4
